From the supplement of paper PMC10307832

Tests used:
Assay in all cases: relative viability (nuclei count vs DMSO), 5 days (fraction); higher = more cells survive
MK-8033 + Linsitinib = compound: Cn1cc(-c2cnc3ccc4ccc(CS(=O)(=O)NCc5ccccn5)cc4c(=O)c3c2)cn1 [MK-8033] + C[C@]1(O)C[C@@H](c2nc(-c3ccc4ccc(-c5ccccc5)nc4c3)c3c(N)nccn32)C1 [Linsitinib] (partner 1 µM)
Outline: (§1)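 Relative viability was taken as the ratio of nuclei in treated wells to nuclei in vehicle wells. Lung cancer cell lines in 1536-well plates received compounds by pin tool one day after seeding, either one drug alone or a fixed anchor-drug dose plus five library-drug doses (not always all listed) in √10 steps. Nuclei were counted on 4× images after 5 days of treatment, and values are medians of duplicate plates.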

MK-8033 + Decitabine = compound: Cn1cc(-c2cnc3ccc4ccc(CS(=O)(=O)NCc5ccccn5)cc4c(=O)c3c2)cn1 [MK-8033] + Nc1ncn([C@H]2C[C@H](O)[C@@H](CO)O2)c(=O)n1 [Decitabine] (partner 2 µM)
Outline: as §1

RU-SKI 43 + Tozasertib = compound: CC[C@@H](C)CNCC(=O)N1CCC2=C([C@@H]1COC3=CC=CC(=C3)C)C=CS2 [RU-SKI 43] + Cc1cc(Nc2cc(N3CCN(C)CC3)nc(Sc3ccc(NC(=O)C4CC4)cc3)n2)n[nH]1 [Tozasertib] (partner 0.1 µM)
Outline: as §1

Irinotecan + OSI-027 = compound: CCc1c2c(nc3ccc(OC(=O)N4CCC(N5CCCCC5)CC4)cc13)-c1cc3c(c(=O)n1C2)COC(=O)[C@]3(O)CC [Irinotecan] + COc1cccc2cc(-c3nc([C@H]4CC[C@H](C(=O)O)CC4)n4ncnc(N)c34)[nH]c12 [OSI-027] (partner 0.5 µM)
Outline: as §1

Row | Cell Line | relative viability (MK-8033 + Linsitinib; first compound 0.02 µM) | relative viability (MK-8033 + Linsitinib; first compound 0.06325 µM) | relative viability (MK-8033 + Linsitinib; first compound 0.2 µM) | relative viability (MK-8033 + Linsitinib; first compound 0.6325 µM) | relative viability (MK-8033 + Linsitinib; first compound 2 µM) | relative viability (MK-8033 + Decitabine; first compound 0.02 µM) | relative viability (MK-8033 + Decitabine; first compound 0.06325 µM) | relative viability (MK-8033 + Decitabine; first compound 0.2 µM) | relative viability (MK-8033 + Decitabine; first compound 0.6325 µM) | relative viability (MK-8033 + Decitabine; first compound 2 µM) | relative viability (RU-SKI 43 + Tozasertib; first compound 0.1 µM) | relative viability (RU-SKI 43 + Tozasertib; first compound 0.3162 µM) | relative viability (RU-SKI 43 + Tozasertib; first compound 1 µM) | relative viability (RU-SKI 43 + Tozasertib; first compound 3.162 µM) | relative viability (RU-SKI 43 + Tozasertib; first compound 10 µM) | relative viability (Irinotecan + OSI-027; first compound 0.6325 µM) | relative viability (Irinotecan + OSI-027; first compound 2 µM) | relative viability (Irinotecan + OSI-027; first compound 6.325 µM) | relative viability (Irinotecan + OSI-027; first compound 20 µM)
1 | NCI-H727 | 0.284 | 0.275 | 0.253 | 0.3 | 0.266 | 0.846 | 0.783 | 0.921 | 0.927 | 0.829 | 0.658 | 0.583 | 0.54 | 0.564 | 0.629 | 0.338 | 0.499 | 0.391 | 0.428
2 | EMC-BAC-2 | 0.774 | 0.771 | 0.744 | 0.893 | 0.791 | 0.941 | 0.762 | 0.967 | 0.982 | 0.938 | 0.295 | 0.235 | 0.262 | 0.296 | 0.249 | 0.316 | 0.331 | 0.274 | 0.287
3 | ChaGo-K-1 |  |  |  |  |  | 0.525 | 0.463 | 0.56 | 0.385 | 0.511 | 0.234 | 0.203 | 0.221 | 0.22 | 0.231 | 0.272 | 0.39 | 0.215 | 0.212
4 | LXF-289 | 0.926 | 0.944 | 1.01 | 0.96 | 0.976 | 0.377 | 0.394 | 0.352 | 0.408 | 0.338 | 0.229 | 0.249 | 0.21 | 0.2 | 0.183 | 0.472 | 0.797 | 0.421 | 0.24
5 | HCC-827 | 0.957 |  | 0.947 | 0.968 | 0.948 | 0.345 |  | 0.322 | 0.376 | 0.37 | 0.435 | 0.523 | 0.592 | 0.426 | 0.368 | 0.639 | 0.64 | 0.224 | 0.216
6 | HCC-44 | 0.615 | 0.661 | 0.617 | 0.654 | 0.688 | 0.95 | 0.933 | 0.948 | 1.02 | 0.954 | 0.962 |  | 0.903 | 1.02 | 0.87 |  | 0.721 | 0.289 | 0.213
7 | NCI-H2023 | 0.651 | 0.533 | 0.473 | 0.536 | 0.415 | 0.217 | 0.203 | 0.213 | 0.247 | 0.212 | 0.32 | 0.438 | 0.516 | 0.424 | 0.218 | 0.319 | 0.377 | 0.238 | 0.0537
8 | NCI-H1734 | 0.904 | 0.769 | 0.852 | 0.93 | 0.858 | 0.562 | 0.463 | 0.478 | 0.504 | 0.481 | 0.238 | 0.217 | 0.276 | 0.258 | 0.267 |  | 0.509 | 0.225 | 0.165
9 | PC-14 | 0.978 | 0.843 | 0.859 | 0.939 | 0.858 | 0.214 | 0.176 | 0.225 | 0.212 | 0.183 | 0.635 | 0.522 | 0.7 | 0.554 | 0.471 | 0.286 | 0.498 | 0.243 | 0.117
